Patent US20060233714A1, “Use of a volatile liquid at atmospheric pressure and ambient temperature for the production of pharmaceutical or biological compositions” (priority 2003, published 2006)

Tests used:
[1] = Evaporation time of the liquid brought into contact with living human hands; format: physicochemical; conditions: liquid applied to living human hands/skin; averages; 1 ml or 2 ml
Protocol: For an HFE having a vapor pressure at 25° C. and atmospheric pressure of 28,000 Pa (280 mbar), the evaporation time when 1 ml is brought into contact with living human hands was about 4 seconds; for an HFE having a vapor pressure at 25° C. and atmospheric pressure of 14,000 Pa (140 mbar), the evaporation time was 7 seconds; for an HFE having a vapor pressure at 25° C. and atmospheric pressure of 2100 Pa (21 mbar), the evaporation time was about 15 seconds; and for an HFE having a vapor pressure at 25° C. and atmospheric pressure of 69,800 Pa, the evaporation time was about 1 s.
The evaporation times indicated above are averages for 2 ml applied to the skin. They depend in particular on the temperature of the substrate to which they are applied and can vary between individuals, for application to the skin and mucosae, according to the body temperature and room temperature.

[2] = Vapor pressure at 25° C. and atmospheric pressure

Molecule	evaporation time on the hands [1]	vapor pressure at 25° C. and atmospheric pressure [2]
COC(F)(F)C(F)(F)C(F)(F)F [methoxyheptafluoropropane]	about 1 s	69,800 Pa
methoxynonafluorobutane	about 4 s	28,000 Pa
ethoxynonafluorobutane	about 7 s	–
